Tested on: Bmi-1 protein
Assay: Sandwich ELISA Assay (Bmi-1 protein level in HT-1080 cells after compound treatment)
Assay type: cell-based
Settings: Table 1, Bmi-1 sandwich ELISA, read-out: ELISA EC50 value for Bmi-1 protein
Method in brief: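 Sandwich ELISA quantified Bmi-1 protein against recombinant standard (125–8000 pg/mL), with lysates captured overnight at 4 °C and signal by HRP/TMB at 450 nm (570 nm reference). Lysates came from HT-1080 cells incubated 40–48 h with test compounds in 0.5% DMSO.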

`COc1ccc(Nc2cccc(-n3c(C)nc4cc(F)c(F)cc43)n2)cc1` [compound 613, 6-(5,6-difluoro-2-methyl-1H-benzimidazol-1-yl)-N-(4-methoxyphenyl)pyridin-2-amine] and `Cc1ccc(Nc2cccc(-n3c(C)nc4cc(F)c(F)cc43)n2)cc1` [compound 614, 6-(5,6-difluoro-2-methyl-1H-benzimidazol-1-yl)-N-(4-methylphenyl)pyridin-2-amine] fall in the same range of EC50: 10 to 100 nM for the first, 10 to 100 nM for the second.

First: Cc1nc2cc(F)c(F)cc2n1-c1cccc(Nc2ccc(Cl)cc2)n1 [compound 615, N-(4-chlorophenyl)-6-(5,6-difluoro-2-methyl-1H-benzimidazol-1-yl)pyridin-2-amine]
Second: Cc1nc2cc(F)c(F)cc2n1-c1cc(N)cc(Nc2ccc(Cl)cc2)n1 [compound 658, N^2-(4-chlorophenyl)-6-(5,6-difluoro-2-methyl-1H-benzimidazol-1-yl)pyridine-2,4-diamine]
The EC50 of the first is higher: 100 to 3000 nM for the first, 10 to 100 nM for the second.

`Cc1nc2ccccc2n1-c1cncc(Nc2ccc(Br)cc2)n1` [compound 616, N-(4-bromophenyl)-6-(2-methyl-1H-benzimidazol-1-yl)pyrazin-2-amine] and `Cc1nc2ccccc2n1-c1cncc(Nc2ccc(I)cc2)n1` [compound 619, N-(4-iodophenyl)-6-(2-methyl-1H-benzimidazol-1-yl)pyrazin-2-amine] fall in the same range of EC50: 1 to 10 nM for the first, 1 to 10 nM for the second.

First: Cc1ccc(Nc2cc(-n3c(C)ccc3C)cc(-n3c(C)nc4ccccc43)n2)cc1 [compound 617, 4-(2,5-dimethyl-1H-pyrrol-1-yl)-6-(2-methyl-1H-benzimidazol-1-yl)-N-(4-methylphenyl)pyridin-2-amine]
Second: Cc1ccc(C)n1-c1cc(Nc2ccc(Cl)cc2)nc(-n2c(C)nc3ccccc32)c1 [compound 618, N-(4-chlorophenyl)-4-(2,5-dimethyl-1H-pyrrol-1-yl)-6-(2-methyl-1H-benzimidazol-1-yl)pyridin-2-amine]
The EC50 of the first is lower: 10 to 100 nM for the first, 100 to 3000 nM for the second.

`CCc1nc2ccc(F)cc2n1-c1cncc(Nc2ccccc2)n1` [compound 620, 6-(2-ethyl-6-fluoro-1H-benzimidazol-1-yl)-N-phenylpyrazin-2-amine] and `CCc1ccc(Nc2cncc(-n3c(C)nc4ccccc43)n2)cc1` [compound 662, N-(4-ethylphenyl)-6-(2-methyl-1H-benzimidazol-1-yl)pyrazin-2-amine] fall in the same range of EC50: 100 to 3000 nM for the first, 100 to 3000 nM for the second.

`CCc1nn2ccccc2c1-c1cncc(Nc2ccc(OC)cc2)n1` [compound 627, 6-(2-ethylpyrazolo[1,5-a]pyridin-3-yl)-N-(4-methoxyphenyl)pyrazin-2-amine] and `CCc1nn2ccccc2c1-c1cncc(Nc2ccc(C)cc2)n1` [compound 628, 6-(2-ethylpyrazolo[1,5-a]pyridin-3-yl)-N-(4-methylphenyl)pyrazin-2-amine] cannot be ordered by EC50: < 1 nM for the first, < 1 nM for the second.

Compared with `CCc1nn2ccccc2c1-c1cncc(Nc2ccc(Cl)cc2)n1` [compound 629, N-(4-chlorophenyl)-6-(2-ethylpyrazolo[1,5-a]pyridin-3-yl)pyrazin-2-amine], `CCc1nn2ccccc2c1-c1cncc(Nc2ccc(F)cc2)n1` [compound 630, 6-(2-ethylpyrazolo[1,5-a]pyridin-3-yl)-N-(4-fluorophenyl)pyrazin-2-amine] is higher in EC50: 1 to 10 nM for the first, 100 to 3000 nM for the second.

`CCc1nn2ccccc2c1-c1cncc(Nc2ccccc2)n1` [compound 631, 6-(2-ethylpyrazolo[1,5-a]pyridin-3-yl)-N-phenylpyrazin-2-amine] and `CCc1nn2ccccc2c1-c1cncc(Nc2cccc(Cl)c2)n1` [compound 643, N-(3-chlorophenyl)-6-(2-ethylpyrazolo[1,5-a]pyridin-3-yl)pyrazin-2-amine] fall in the same range of EC50: 100 to 3000 nM for the first, 100 to 3000 nM for the second.

First: Cc1ccc(Nc2cc(N)cc(-n3c(C)nc4ccccc43)n2)cc1 [compound 632, 6-(2-methyl-1H-benzimidazol-1-yl)-N^2-(4-methylphenyl)pyridine-2,4-diamine]
Second: Cc1nc2ccccc2n1-c1cc(N)cc(Nc2ccc(Cl)cc2)n1 [compound 633, N^2-(4-chlorophenyl)-6-(2-methyl-1H-benzimidazol-1-yl)pyridine-2,4-diamine]
The EC50 of the first is lower: 1 to 10 nM for the first, 10 to 100 nM for the second. The first is the more potent here.

`CCc1nn2ccccc2c1-c1cncc(Nc2cccc(OC)c2)n1` [compound 640, 6-(2-ethylpyrazolo[1,5-a]pyridin-3-yl)-N-(3-methoxyphenyl)pyrazin-2-amine] and `CCc1nn2ccccc2c1-c1cncc(Nc2ccc(C(=O)OC)cc2)n1` [compound 642, methyl 4-{[6-(2-ethylpyrazolo[1,5-a]pyridin-3-yl)pyrazin-2-yl]amino}benzoate] fall in the same range of EC50: 10 to 100 nM for the first, 10 to 100 nM for the second.

First: CCc1nn2ccccc2c1-c1cncc(Nc2ccc(C#N)cc2)n1 [compound 641, 4-{[6-(2-ethylpyrazolo[1,5-a]pyridin-3-yl)pyrazin-2-yl]amino}benzonitrile]
Second: C#Cc1ccc(Nc2cncc(-n3c(C)nc4ccccc43)n2)cc1 [compound 665, N-(4-ethynylphenyl)-6-(2-methyl-1H-benzimidazol-1-yl)pyrazin-2-amine]
The EC50 of the first is lower: 10 to 100 nM for the first, 100 to 3000 nM for the second.

`Cc1nc2ccccc2n1-c1cncc(Nc2ccc(C(F)(F)F)cc2F)n1` [compound 644, N-[2-fluoro-4-(trifluoromethyl)phenyl]-6-(2-methyl-1H-benzimidazol-1-yl)pyrazin-2-amine] and `Cc1nc2ccccc2n1-c1cncc(Nc2cc(F)c(C(F)(F)F)c(F)c2)n1` [compound 645, N-[3,5-difluoro-4-(trifluoromethyl)phenyl]-6-(2-methyl-1H-benzimidazol-1-yl)pyrazin-2-amine] fall in the same range of EC50: 10 to 100 nM for the first, 10 to 100 nM for the second.

`Cc1nc2ccc(F)cn2c1-c1cc(C#N)cc(Nc2cccc(F)c2)n1` [compound 651, 2-(6-fluoro-2-methylimidazo[1,2-a]pyridin-3-yl)-6-[(3-fluorophenyl)amino}pyridine-4-carbonitrile] and `COc1ccc2nc(C)c(-c3cc(C#N)cc(Nc4ccc(C)cc4)n3)n2c1` [compound 673, 2-(6-methoxy-2-methylimidazo[1,2-a]pyridin-3-yl)-6-[(4-methylphenyl)amino]pyridine-4-carbonitrile] fall in the same range of EC50: 100 to 3000 nM for the first, 100 to 3000 nM for the second.

`Cc1nc2cc(F)c(F)cc2n1-c1cc(N)cc(Nc2ccc(OC(F)(F)F)cc2)n1` [compound 652, 6-(5,6-difluoro-2-methyl-1H-benzimidazol-1-yl)-N^2-[4-(trifluoromethoxy)phenyl]pyridine-2,4-diamine] and `COc1ccc(Nc2cc(N)cc(-n3c(C)nc4cc(F)c(F)cc43)n2)cc1` [compound 656, 6-(5,6-difluoro-2-methyl-1H-benzimidazol-1-yl)-N^2-(4-methoxyphenyl)pyridine-2,4-diamine] fall in the same range of EC50: 10 to 100 nM for the first, 10 to 100 nM for the second.

`Cc1nc2ccc(F)cc2n1-c1cncc(Nc2ccc(Cl)c(F)c2)n1` [compound 654, N-(4-chloro-3-fluorophenyl)-6-(6-fluoro-2-methyl-1H-benzimidazol-1-yl)pyrazin-2-amine] and `Cc1nc2ccccc2n1-c1cncc(Nc2ccc(C(C)C)cc2)n1` [compound 661, 6-(2-methyl-1H-benzimidazol-1-yl)-N-[4-(propan-2-yl)phenyl]pyrazin-2-amine] fall in the same range of EC50: 10 to 100 nM for the first, 10 to 100 nM for the second.

First: COc1ccc(Nc2cc(C)cc(-n3c(C)nc4ccccc43)n2)cc1 [compound 655, N-(4-methoxyphenyl)-4-methyl-6-(2-methyl-1H-benzimidazol-1-yl)pyridin-2-amine]
Second: Cc1nc2ccccc2n1-c1cncc(Nc2ccc(OC(C)C)cc2)n1 [compound 660, 6-(2-methyl-1H-benzimidazol-1-yl)-N-[4-(propan-2-yloxy)phenyl]pyrazin-2-amine]
The EC50 of the first is higher: 100 to 3000 nM for the first, 10 to 100 nM for the second. The second is the more potent here.

First: Cc1ccc(Nc2cc(N)cc(-n3c(C)nc4cc(F)c(F)cc43)n2)cc1 [compound 657, 6-(5,6-difluoro-2-methyl-1H-benzimidazol-1-yl)-N^2-(4-methylphenyl)pyridine-2,4-diamine]
Second: Cc1nc2ccccc2n1-c1cncc(Nc2ccc(C(C)(C)C)cc2)n1 [compound 659, N-(4-tert-butylphenyl)-6-(2-methyl-1H-benzimidazol-1-yl)pyrazin-2-amine]
The EC50 of the first is lower: 10 to 100 nM for the first, 100 to 3000 nM for the second. The first is the more potent here.

First: CCCc1ccc(Nc2cncc(-n3c(C)nc4ccccc43)n2)cc1 [compound 663, 6-(2-methyl-1H-benzimidazol-1-yl)-N-(4-propylphenyl)pyrazin-2-amine]
Second: CCOc1ccc(Nc2cncc(-n3c(C)nc4ccccc43)n2)cc1 [compound 664, N-(4-ethoxyphenyl)-6-(2-methyl-1H-benzimidazol-1-yl)pyrazin-2-amine]
The EC50 of the first is lower: 10 to 100 nM for the first, 100 to 3000 nM for the second. The first is the more potent here.

`C=Cc1ccc(Nc2cncc(-n3c(C)nc4ccccc43)n2)cc1` [compound 666, N-(4-ethenylphenyl)-6-(2-methyl-1H-benzimidazol-1-yl)pyrazin-2-amine] and `Cc1ccc(Nc2cncc(-c3c(C(F)(F)F)nc4ccc(F)cn34)n2)cc1` [compound 671, 6-[6-fluoro-2-(trifluoromethyl)imidazo[1,2-a]pyridin-3-yl]-N-(4-methylphenyl)pyrazin-2-amine] fall in the same range of EC50: 100 to 3000 nM for the first, 100 to 3000 nM for the second.

`Fc1ccc2nc(C(F)(F)F)c(-c3cncc(Nc4ccccc4)n3)n2c1` [compound 667, 6-[6-fluoro-2-(trifluoromethyl)imidazo[1,2-a]pyridin-3-yl]-N-phenylpyrazin-2-amine] and `Fc1ccc(Nc2cncc(-c3c(C(F)(F)F)nc4ccc(F)cn34)n2)cc1` [compound 669, N-(4-fluorophenyl)-6-[6-fluoro-2-(trifluoromethyl)imidazo[1,2-a]pyridin-3-yl]pyrazin-2-amine] fall in the same range of EC50: 100 to 3000 nM for the first, 100 to 3000 nM for the second.

`N#Cc1ccc(Nc2cncc(-c3c(C(F)(F)F)nc4ccc(F)cn34)n2)cc1` [compound 668, 4-({6-[6-fluoro-2-(trifluoromethyl)imidazo[1,2-a]pyridin-3-yl]pyrazin-2-yl}amino)benzonitrile] and `Fc1ccc2nc(C(F)(F)F)c(-c3cncc(Nc4ccc(Cl)cc4)n3)n2c1` [compound 670, N-(4-chlorophenyl)-6-[6-fluoro-2-(trifluoromethyl)imidazo[1,2-a]pyridin-3-yl]pyrazin-2-amine] fall in the same range of EC50: 100 to 3000 nM for the first, 100 to 3000 nM for the second.

Source: patent US10584115B2, “Substituted pyridine and pyrazine BMI-1 inhibitors” (PTC Therapeutics, Inc., priority 2013, dated 2020)
